Molecular target: T1, human IP6K2 (Homo sapiens, UniProt Q9UHH9)
T1 construct: made in house; host or cells: Sf9 insect cells (baculovirus)
T1 sequence (Q9UHH9 1-426): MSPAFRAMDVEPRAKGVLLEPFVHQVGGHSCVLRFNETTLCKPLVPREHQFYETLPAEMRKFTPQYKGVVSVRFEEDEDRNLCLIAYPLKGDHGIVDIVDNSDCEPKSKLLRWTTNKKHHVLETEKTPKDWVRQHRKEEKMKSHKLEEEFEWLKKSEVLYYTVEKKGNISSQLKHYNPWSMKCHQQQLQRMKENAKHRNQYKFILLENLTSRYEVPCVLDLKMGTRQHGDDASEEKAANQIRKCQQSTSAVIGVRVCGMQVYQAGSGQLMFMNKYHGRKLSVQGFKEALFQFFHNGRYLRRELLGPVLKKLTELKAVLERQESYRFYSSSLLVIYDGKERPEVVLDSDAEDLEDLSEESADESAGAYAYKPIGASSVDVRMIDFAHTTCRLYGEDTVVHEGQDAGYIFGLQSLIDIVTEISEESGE
Assay: IP6K2 inhibition assay (ADP Glo kinase assay)
Assay type: biochemical
Conditions: purified human IP6K2, 10 μM IP6, 10 μM ATP, 8-dose, triplicate, mean ± SEM
Protocol: Full-length human IP6K2 cDNA was subcloned into pFASTBAC1 plasmid (Gibco) with an N-terminal FLAG epitope sequence, and baculovirus was generated according to the manufacturer’s instructions. Sf9 insect cells were infected with baculovirus and incubated for 72 h. The cells were resuspended in lysis buffer [20 mM Tris–HCl (pH 7.9), 500 mM NaCl, 4 mM MgCl2, 0.4 mM EDTA, 2 mM DTT, 20% glycerol, 1 mM PMSF, and protease inhibitor cocktail (Roche)] and then disrupted with a Dounce homogeniser (pestle A, 3 series of 10 strokes with 10 min interval).
IP6K2 activity was measured using ADP Glo assay kit (Promega). All kinase assays were performed in low volume 384-well white plates (784075, Greiner-bioone) with a final volume of 5 μL. The reaction buffer contained 2 ng Flag-hIP6K2, 10 μM IP6, and 10 μM ATP in kinase buffer (50 mM Tris, 10 mM MgCl2, 2.5 mM DTT, 0.02% Triton-X-100, pH 6.8)[26]. For dose-dependent inhibition assay, 8 serial 2-fold dilutions of test compounds were prepared in DMSO. The final DMSO concentration was 5% in each reaction. The test compounds (5X, 25% DMSO in 1X kinase buffer) were dispensed to each well, and 2.5 X IP6K2 in kinase buffer were added. After 15 min incubation at room temperature, 2.5 X concentrations of IP6 and ATP were added to the plate. The reaction plate was incubated in a 37 °C incubator for 30 min. Next, the reactions were quenched with 5 μL of ADP Glo reagent for 40 min to deplete the remaining ATP. To convert the remaining ADP to ATP, 10 μl of detection reagent were added and incubated for 30–60 min. The luminescence of the final reactants was measured using the Mithras LB940 plate reader from Berthold. Samples were run in triplicate and the activity (%) was calculated using the following equations; Activity (%) = 100 × (μexperimental–μnegative)/(μpositive–μnegative). Negative control was DSMO-treated reaction. IC50 value was estimated using a logistic regression model with R package.

**Q.** How did the IC50 turn out when `O=[N+]([O-])c1ccc(CNc2nc(NCc3cccc(C(F)(F)F)c3)nc3[nH]cnc23)cc1` [TNP, N^6-[(4-nitrophenyl)methyl]-N^2-[[3-(trifluoromethyl)phenyl]methyl]-9H-purine-2,6-diamine] was run?
**A.** 4.5 ± 0.4 µM
